Measurements taken from patent US12624018B1, “Inhibitors of RIPK2 and medical uses thereof” (Odyssey Therapeutics, Inc., priority 2022, dated 2026).

Each compound was assayed against T1, RIPK2 enzyme (Homo sapiens, UniProt O43353) (assay: RIPK2 inhibition (ADP-Glo Kinase Assay)). Conditions: RIPK2 5 nM, ATP 150 μM, MBP substrate, read-out: RIPK2 IC50.
T1 construct: purchased Carna 09-128
Type: biochemical
How it was run: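 Swine MBP substrate; compound and 5 nM RIPK2 first mixed for 30 min at room temperature; buffer pH 7.5 HEPES 50 mM with 10 mM MgCl2, 2 mM DTT, 1 mM EGTA, Brij-35, BSA.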

T1 sequence (O43353 1-299 limits assumed): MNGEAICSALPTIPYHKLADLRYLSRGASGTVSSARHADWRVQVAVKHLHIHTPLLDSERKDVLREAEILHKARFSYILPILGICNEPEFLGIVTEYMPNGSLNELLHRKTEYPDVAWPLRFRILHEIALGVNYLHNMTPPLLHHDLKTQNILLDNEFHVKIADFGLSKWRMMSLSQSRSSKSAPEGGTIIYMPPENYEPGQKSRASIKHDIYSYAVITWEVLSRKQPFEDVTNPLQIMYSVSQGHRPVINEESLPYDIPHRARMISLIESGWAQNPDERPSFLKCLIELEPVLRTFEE

Compound | IC50
Cc1cc(CC(=O)Nc2cnn(C(C)(C)C)c2)ccc1Oc1ccnc2ccc(O[C@H]3C[C@H](N)C3)cc12 [Compound 124, 2-(4-((6-((1r,3r)-3-aminocyclo-butoxy)quinolin-4-yl)oxy)-3-methyl-phenyl)-N-(1-(tert-butyl)-1H-pyrazol-4-yl)acetamide] | < 2.5 nM
CN1CCC(S(=O)(=O)c2ccc3nccc(Oc4ccc(CC(=O)Nc5cnn(C(C)(C)C)c5)c(F)c4)c3c2)CC1 [Compound 125, N-(1-(tert-butyl)-1H-pyrazol-4-yl)-2-(2-fluoro-4-((6-((1-methylpiperidin-4-yl)sulfonyl)quinolin-4-yl)oxy)phenyl)acetamide] | < 2.5 nM
CN1CCN(S(=O)(=O)c2ccc3nccc(Oc4ccc(CC(=O)Nc5cnn(C(C)(C)C)c5)c(F)c4)c3c2)CC1 [Compound 126, N-(1-(tert-butyl)-1H-pyrazol-4-yl)-2-(2-fluoro-4-((6-((4-methylpiperazin-1-yl)sulfonyl)quinolin-4-yl)oxy)phenyl)acetamide] | < 2.5 nM
CC(C)(C)n1cc(NC(=O)Cc2ccc(Oc3ccnc4ccc(S(=O)(=O)C5CCNCC5)cc34)cc2F)cn1 [Compound 127, N-(1-(tert-butyl)-1H-pyrazol-4-yl)-2-(2-fluoro-4-((6-(piperidin-4-ylsulfonyl)quinolin-4-yl)oxy)phenyl)acetamide] | < 2.5 nM
CC(C)(C)n1cc(NC(=O)Cc2ccc(Oc3ccnc4ccc(S(=O)(=O)N5CCNCC5)cc34)cc2F)cn1 [Compound 128, N-(1-(tert-butyl)-1H-pyrazol-4-yl)-2-(2-fluoro-4-((6-(piperazin-1-ylsulfonyl)quinolin-4-yl)oxy)phenyl)acetamide] | < 2.5 nM
[2H]C([2H])([2H])N1CCC(Oc2ccc3nccc(Oc4cnc(CC(=O)Nc5cnn(C(C)(C)C)c5)c(F)c4)c3c2)CC1 [Compound 129, N-(1-(tert-butyl)-1H-pyrazol-4-yl)-2-(3-fluoro-5-((6-((1-(methyl-d3)piperidin-4-yl)oxy)quinolin-4-yl)oxy)pyridin-2-yl) acetamide] | 4.4 nM
CCS(=O)(=O)c1ccc2nccc(Oc3ccc(CC(=O)Nc4cnn(C(C)(C)C)c4)c(F)c3)c2c1 [Compound 130, N-(1-(tert-butyl)-1H-pyrazol-4-yl)-2-(4-((6-(ethylsulfonyl)quinolin-4-yl)oxy)-2-fluorophenyl)acetamide] | < 2.5 nM
CC(C)(C)n1cc(NC(=O)Cc2ccc(Oc3ccnc4ccc(S(=O)(=O)C5CC5)cc34)cc2F)cn1 [Compound 131, N-(1-(tert-butyl)-1H-pyrazol-4-yl)-2-(4-((6-(cyclopropylsulfonyl)quinolin-4-yl)oxy)-2-fluorophenyl)acetamide] | < 2.5 nM
CC(C)(C)n1cc(NC(=O)Cc2ccc(Oc3ccnc4ccc(S(=O)(=O)C5COC5)cc34)cc2F)cn1 [Compound 132, N-(1-(tert-butyl)-1H-pyrazol-4-yl)-2-(2-fluoro-4-((6-(oxetan-3-ylsulfonyl)quinolin-4-yl)oxy)phenyl)acetamide] | < 2.5 nM
CC(C)(C)n1cc(NC(=O)Cc2ccc(Oc3ncnc4ccc(OC5CCOCC5)cc34)cc2F)cn1 [Compound 133, N-(1-(tert-butyl)-1H-pyrazol-4-yl)-2-(2-fluoro-4-((6-((tetrahydro-2H-pyran-4-yl)oxy)quinazolin-4-yl)oxy)phenyl) acetamide] | 10.9 nM
CN1CCC(Oc2ccc3nccc(Oc4cnc(CC(=O)Nc5cc(C(C)(C)C)[nH]n5)c(F)c4)c3c2)CC1 [Compound 134, N-(5-(tert-butyl)-1H-pyrazol-3-yl)-2-(3-fluoro-5-((6-((1-methylpiperidin-4-yl)oxy)quinolin-4-yl)oxy)pyridin-2-yl)acetamide] | < 2.5 nM
CC(C)(C)c1cc(NC(=O)Cc2ncc(Oc3ccnc4ccc(OC5CCNCC5)cc34)cc2F)n[nH]1 [Compound 135, N-(5-(tert-butyl)-1H-pyrazol-3-yl)-2-(3-fluoro-5-((6-(piperidin-4-yloxy)quinolin-4-yl)oxy)pyridin-2-yl)acetamide] | < 2.5 nM
CN1CCC(Oc2ccc3nccc(Oc4ccc(CC(=O)Nc5cc(C(C)(C)C)[nH]n5)c(F)c4)c3c2)CC1 [Compound 136, N-(5-(tert-butyl)-1H-pyrazol-3-yl)-2-(2-fluoro-4-((6-((1-methyl-piperidin-4-yl)oxy)quinolin-4-yl)oxy)phenyl) acetamide] | < 2.5 nM
CC(C)(C)c1cc(NC(=O)Cc2ccc(Oc3ccnc4ccc(OC5CCNCC5)cc34)cc2F)n[nH]1 [Compound 137, N-(5-(tert-butyl)-1H-pyrazol-3-yl)-2-(2-fluoro-4-((6-(piperidin-4-yloxy)quinolin-4-yl)oxy)phenyl) acetamide] | < 2.5 nM
COC(C)(C)c1ccc2nccc(Oc3cnc(CC(=O)Nc4cnn(C(C)(C)C)c4)c(F)c3)c2c1 [Compound 138, N-(1-(tert-butyl)-1H-pyrazol-4-yl)-2-(3-fluoro-5-((6-(2-methoxypropan-2-yl)quinolin-4-yl)oxy)pyridin-2-yl)acetamide] | 5.2 nM
CN1CCC(Cc2ccc3nccc(Oc4cnc(CC(=O)Nc5cnn(C(C)(C)C)c5)c(F)c4)c3c2)CC1 [Compound 139, N-(1-(tert-butyl)-1H-pyrazol-4-yl)-2-(3-fluoro-5-((6-((1-methylpiperidin-4-yl)methyl)quinolin-4-yl)oxy)pyridin-2-yl)acetamide] | 3.2 nM

Compound | IC50
[2H]C([2H])([2H])n1nc(NC(=O)Cc2ccc(Oc3ccnc4ccc(S(C)(=O)=O)cc34)cc2F)cc1C(C)(C)C [Compound 142, N-(5-(tert-butyl)-1-(methyl-d3)-1H-pyrazol-3-yl)-2-(2-fluoro-4-((6-(methylsulfonyl)quinolin-4-yl)oxy)phenyl)acetamide] | < 2.5 nM
CC(C)c1cc(NC(=O)Cc2ccc(Oc3ccnc4ccc(S(C)(=O)=O)cc34)cc2F)n[nH]1 [Compound 143, 2-(2-fluoro-4-((6-(methylsulfonyl)quinolin-4-yl)oxy)phenyl)-N-(5-isopropyl-1H-pyrazol-3-yl)acetamide] | < 2.5 nM
CC(C)c1cc(NC(=O)Cc2ccc(Oc3ccnc4ccc(S(C)(=O)=O)cc34)cc2F)nn1C [Compound 144, 2-(2-fluoro-4-((6-(methylsulfonyl)quinolin-4-yl)oxy)phenyl)-N-(5-isopropyl-1-methyl-1H-pyrazol-3-yl)acetamide] | < 2.5 nM
CS(=O)(=O)c1ccc2nccc(Oc3ccc(CC(=O)Nc4cc(C5CC5)[nH]n4)c(F)c3)c2c1 [Compound 145, N-(5-cyclopropyl-1H-pyrazol-3-yl)-2-(2-fluoro-4-((6-(methylsulfonyl)quinolin-4-yl)oxy)phenyl)acetamide] | 3.1 nM
Cn1nc(NC(=O)Cc2ccc(Oc3ccnc4ccc(S(C)(=O)=O)cc34)cc2F)cc1C1CC1 [Compound 146, N-(5-cyclopropyl-1-methyl-1H-pyrazol-3-yl)-2-(2-fluoro-4-((6-(methylsulfonyl)quinolin-4-yl)oxy)phenyl)acetamide] | < 2.5 nM
CCn1nc(NC(=O)Cc2ccc(Oc3ccnc4ccc(S(C)(=O)=O)cc34)cc2F)cc1C(C)(C)C [Compound 147, N-(5-(tert-butyl)-1-ethyl-1H-pyrazol-3-yl)-2-(2-fluoro-4-((6-(methylsulfonyl)quinolin-4-yl)oxy)phenyl)acetamide] | < 2.5 nM
CCn1nc(NC(=O)Cc2ccc(Oc3ccnc4ccc(S(C)(=O)=O)cc34)cc2F)cc1C(C)C [Compound 148, N-(1-ethyl-5-isopropyl-1H-pyrazol-3-yl)-2-(2-fluoro-4-((6-(methylsulfonyl)quinolin-4-yl)oxy)phenyl)acetamide] | < 2.5 nM
Cc1cc(CC(=O)Nc2cnn(C(C)(C)C)c2)ccc1Oc1ccnc2ccc(S(=O)(=O)C3CN(C)C3)cc12 [Compound 149, N-(1-(tert-butyl)-1H-pyrazol-4-yl)-2-(3-methyl-4-((6-((1-methylazetidin-3-yl)sulfonyl)quinolin-4-yl)oxy)phenyl)acetamide] | < 2.5 nM
CC(=O)N1CCC(Oc2ccc3nccc(Oc4cnc(CC(=O)Nc5cnn(C(C)(C)C)c5)c(F)c4)c3c2)CC1 [Compound 150, 2-(5-((6-((1-acetylpiperidin-4-yl)oxy)quinolin-4-yl)oxy)-3-fluoropyridin-2-yl)-N-(1-(tert-butyl)-1H-pyrazol-4-yl)acetamide] | 4.1 nM
CC(=O)N1CCC(Oc2ccc3nccc(Oc4ccc(CC(=O)Nc5cnn(C(C)(C)C)c5)c(F)c4)c3c2)CC1 [Compound 151, 2-(4-((6-((1-acetyl-piperidin-4-yl)oxy)quinolin-4-yl)oxy)-2-fluoro-phenyl)-N-(1-(tert-butyl)-1H-pyrazol-4-yl)acetamide] | < 2.5 nM
CC(C)(C)n1cc(NC(=O)Cc2ccc(Oc3ccnc4ccc(N5CCCC5=O)cc34)cc2F)cn1 [Compound 152, N-(1-(tert-butyl)-1H-pyrazol-4-yl)-2-(2-fluoro-4-((6-(2-oxopyrrolidin-1-yl)quinolin-4-yl)oxy)phenyl) acetamide] | < 2.5 nM
CC(C)(C)n1cc(NC(=O)Cc2ccc(Oc3ccnc4ccc(N5CCCCC5=O)cc34)cc2F)cn1 [Compound 153, N-(1-(tert-butyl)-1H-pyrazol-4-yl)-2-(2-fluoro-4-((6-(2-oxopiperidin-1-yl)quinolin-4-yl)oxy)phenyl) acetamide] | 2.7 nM
CC(C)(C)n1cc(NC(=O)Cc2ccc(Oc3ccnc4ccc(N5CCOCC5=O)cc34)cc2F)cn1 [Compound 154, N-(1-(tert-butyl)-1H-pyrazol-4-yl)-2-(2-fluoro-4-((6-(3-oxomorpholino)quinolin-4-yl)oxy)phenyl) acetamide] | < 2.5 nM
CC(C)(C)n1cc(NC(=O)Cc2ccc(Oc3ccnc4ccc(N5CCNCC5=O)cc34)cc2F)cn1 [Compound 155, N-(1-(tert-butyl)-1H-pyrazol-4-yl)-2-(2-fluoro-4-((6-(2-oxopiperazin-1-yl)quinolin-4-yl)oxy)phenyl) acetamide] | 2.5 nM
CN1CCN(c2ccc3nccc(Oc4ccc(CC(=O)Nc5cnn(C(C)(C)C)c5)c(F)c4)c3c2)C(=O)C1 [Compound 156, N-(1-(tert-butyl)-1H-pyrazol-4-yl)-2-(2-fluoro-4-((6-(4-methyl-2-oxopiperazin-1-yl)quinolin-4-yl)oxy)phenyl) acetamide] | 4.5 nM
